Test results taken from patent US8969373B2, “HCV protease inhibitors” (Shanghai Tangrun Pharmaceuticals Co., Ltd., priority 2011, dated 2015).
Read-outs that look alike come from different tables or passages of the source.

Experiments:
[1] = test system: HCV replicon (pSGR-399LM) in Huh7 cells; assay: Inhibitory activity in the HCV replicon system (Renilla luciferase); assay type: cell-based; conditions: Hepatitis C virus, Huh-7, pSGR-399LM replicon Huh7 cells, 72 hr
Description: The Inhibitory Activity of Compounds in the HCV Replicon System
HCV replicon cell-line: The Huh7 cells were transfected with pSGR-399LM replicon DNA and cultured in the DMEM containing 10% FBS and 0.5 mg/mL G418. The cells were split at 1:3 to 1:5 every 3-4 days. The transfected cells were seeded in 96-well plates and cultured at 37° C., 5% CO2 for 24 hr.
Treatment with samples: To the HCV replicon Huh7 cells-line were added different concentration of the samples (i.e. compound Ik, wherein k=1, 2, 3 . . . 42), the each concentration for duplicate, and set no sample control wells. The concentration started at 400 nM, with quarter dilution to form five different concentrations of samples, that is 400 nM, 100 nM, 25 nM, 6.25 nM and 1.56 nM. The samples were added separately, and continued to incubated for 72 hr.
Fluorescence detection: After 72 hr treatment with sample, the cells were lysed and added with Renilla luciferase substrate to detect luminescent signal. The relative luminescent unit (RLU) in the luminometer was read out and used to calculate the inhibition rate of HCV.

[2] = test system: HCV (J399EM virus) in Huh7.5.1 cells; assay: Inhibition of HCV replication in HCV infected human hepatocellular carcinoma cells (Huh7.5.1), HCV-EGFP fluorescence; assay type: cell-based; conditions: Hepatitis C virus, Huh-7.5.1, 72 h, read-out: HCV infected human hepatocellular carcinoma cells in vitro EC50(nM)
Description: In Vitro Inhibitory Activity of Compounds in HCV Replication in HCV Infected Human Hepatocellular Carcinoma Cells (Huh7.5.1)
The preparation of Huh7.5.1cells: Huh 7.5.1 cells were seeded at a 96-well plate with 37 and 5% CO2 for 24 hours incubation.
Virus infection: Using the J399EM virus supernatants (moi≈0.1) to infect Huh7.5.1cells. At the same time, the no virus infected cell will be set up as the control. After 8 hours virus infection, the virus will be washed out with PBS.
Drug treatment: The different doses of samples (i.e. the compound Ik, wherein k=1, 2, 3, . . . 42) were added in J399EM infected Huh7.5.1 cells, the each dose for duplicate. At the same time the no sample added in wells will be set up as the control. The test dose of sample is starting from 25 nM or 400 nM, with quarter dilution, 5 doses of sample will be added in the test wells, respectively, then continued for 72 hours incubation.
HCV-EGFP fluorescence detection: After samples treatment for 72 hours, the autofluorescence of HCV-EGFP were measured by the luminometer with excitation of 488 nm, and emission of 516 nm. The related fluorescence unit (RFU) of samples will be read out and used for calculating the inhibitory rates of compounds in HCV replication.

[3] = Pharmacokinetic evaluation in SD rats after oral administration; assay type: in vivo, Sprague-Dawley (SD) rats; conditions: oral gavage, 10 mg/kg; for bioavailability: read-out: F (absolute bioavailability)
Description: Pharmacokinetic Evaluation of the Compounds of this Invention
Twenty healthy male Sprague-Dawley (SD) rats with body weight of 200-220 g were divided into 5 groups randomly and each group contains 4 rats. Before the experiment, rats were fasted for 12 h with free access to water. The compound Ik (wherein k=2, 5, 18, 34 or 38) of this invention was administered by oral gavage at a dose level of 10 mg/kg. The compounds were prepared with 0.5% CMC-Na containing 1% Tween 80. The dose volume was 10 mL/kg. The rats were afforded unlimited access to food after 2 h of dosing 0.3 mL of blood samples were collected at 0.25 h, 0.5 h, 1.0 h, 2.0 h, 3.0 h, 5.0 h, 7.0 h, 9.0 h, and 24.0 h, respectively, from postocular venous plexes of the rat. The blood samples were placed in heparin-containing tubes and immediately centrifuged at 11000 rpm for 5 min. Plasma was separated and refrigerated at −20° C. until analysis. LC-MS/MS methods were used to quantify plasma concentrations of the compound Ik.

[4] = male, Sprague-Dawley, rat, plasma
[5] = male, Sprague-Dawley, rat, plasma, po, read-out: Cmax
[6] = male, Sprague-Dawley, rat, plasma, po

| Compound | EC50 [1] | EC50 [2] | AUC(0-inf) [3, 4] | AUC(0-t) [3, 4] | Tmax [3, 4] | half-life [3, 4] | Cmax [3, 5] | bioavailability [3, 6] | Cmax ([3]; listed as I18, 10 mg/kg) |
| --- | --- | --- | --- | --- | --- | --- | --- | --- | --- |
| COc1ccc2oc3c4ccccc4c(O[C@@H]4C[C@H]5C(=O)N[C@]6(C(=O)NS(=O)(=O)C7CC7)C[C@H]6/C=C\CCCCC[C@H](NC(=O)OC(C)(C)C)C(=O)N5C4)nc3c2c1 [Compound 2, tert-butyl(2R,6S,13aS,14aR,16aS,Z)-14a-(cyclopropylsulfonylcarbamoyl)-2-(8-methoxybenzofuro[3,2-c]isoquinolin-5-yloxy)-5,16-dioxo-1,2,3,5,6,7,8,9,10,11,13a,14,14a,15,16,16a-hexadecahydrocyclopropa[e]pyrrolo[1,2-a][1,4]diazacyclopentadecin-6-yl carbamate] | < 100 nM | < 100 nM | 1780 ± 53.7 ng·h/mL | 158 ± 49.8 ng·h/mL | 0.4 ± 0.1 h | 186 ± 78 min | 49.7 ± 11 ng/mL | 1.8% |  |
| CC(C)(C)OC(=O)N[C@H]1CCCCC/C=C\[C@@H]2C[C@@]2(C(=O)NS(=O)(=O)C2CC2)NC(=O)[C@@H]2C[C@@H](Oc3nc4c5cc(Cl)ccc5oc4c4ccccc34)CN2C1=O [Compound 5] | < 100 nM | < 100 nM | 3030 ± 1700 ng·h/mL | 2880 ± 1720 ng·h/mL | 1.25 ± 0.5 h | 209 ± 65.4 min | 560 ± 139 ng/mL | 17.1% |  |
| COc1ccc2c(c1)c(O[C@@H]1C[C@H]3C(=O)N[C@]4(C(=O)NS(=O)(=O)C5CC5)C[C@H]4/C=C\CCCCC[C@H](NC(=O)OC(C)(C)C)C(=O)N3C1)nc1c3ccccc3oc21 [Compound 18] | < 100 nM | < 100 nM | 3270 ± 303 ng·h/mL | 3220 ± 336 ng·h/mL | 1.7 ± 0.6 h | 228 ± 60 min | 623 ± 60.7 ng/mL | ~36.1% | 623.3 ± 60.7 ng/mL |
